In ChEMBL document CHEMBL1221336, “Xanthones with neuraminidase inhibitory activity from the seedcases of Garcinia mangostana” (Bioorg Med Chem, 2010):

What was measured:
Sialidase [1] = target: T1, Sialidase (Clostridium perfringens, UniProt P10481); assay: Inhibition of Clostridium perfringens neuraminidase by fluorimetry; details: for Ki: read-out: Ki(app)
T1 sequence (P10481 whole entry): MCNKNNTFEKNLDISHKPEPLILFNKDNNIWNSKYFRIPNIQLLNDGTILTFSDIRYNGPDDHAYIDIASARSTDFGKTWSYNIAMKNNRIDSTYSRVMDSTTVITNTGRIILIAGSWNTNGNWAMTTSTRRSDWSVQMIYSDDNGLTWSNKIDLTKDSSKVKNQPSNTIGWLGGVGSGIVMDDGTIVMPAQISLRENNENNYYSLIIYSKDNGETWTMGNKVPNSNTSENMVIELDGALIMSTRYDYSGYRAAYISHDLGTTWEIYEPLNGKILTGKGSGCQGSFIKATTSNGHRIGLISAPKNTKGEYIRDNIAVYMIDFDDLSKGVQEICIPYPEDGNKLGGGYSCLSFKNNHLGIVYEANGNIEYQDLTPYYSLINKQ

[2] = target: T2, Sialidase (Clostridium perfringens) (UniProt P10481); assay: Inhibition of Clostridium perfringens neuraminidase at 1.56 uM by fluorimetry; details: TDE = time-dependent effect
T2 sequence (whole entry): T1 sequence (P10481 whole entry)

Sialidase [3] = target: T1, Sialidase; assay: Competitive inhibition of Clostridium perfringens neuraminidase by fluorimetry

Row | Structure (SMILES) | IC50 (Sialidase [1]) [µM] | Ki (Sialidase [1]) [µM] | inhibition [2] | Ki (Sialidase [3]) [µM]
1 | CC(C)=CCc1c(O)cc2oc3cc(O)c(O)c(CC=C(C)C)c3c(=O)c2c1O | 2.2 | 7.41 | tde | 0.8
2 | COc1cc2oc3cc(O)c(OC)c(CC=C(C)C)c3c(=O)c2c(O)c1CC=C(C)C | 60.7 |  |  | 24.9
3 | CC(C)=CCc1c(O)c(CC=C(C)C)c2oc3c(O)cccc3c(=O)c2c1O [8-DEOXYGARTANIN] | 29.2 |  |  | 15.5
4 | COc1cc2oc3c(O)cccc3c(=O)c2c(O)c1CC=C(C)C [CUDRAXANTHONE] | 65.7 |  |  | 35.2
5 | COc1c(O)cc2oc3cc(O)c(CC=C(C)C)c(O)c3c(=O)c2c1CCC(C)(C)O [GARCINONE D] | 5.7 |  |  | 3.3
6 | CC(C)=CCc1c(O)c(CC=C(C)C)c2oc3c(O)ccc(O)c3c(=O)c2c1O [GARTANIN] | 2.9 | 0.437 | tde | 3.6
7 | COc1c(O)cc2oc3cc4c(c(O)c3c(=O)c2c1CC=C(C)C)C=CC(C)(C)O4 [MANGOSTANIN] | 20.1 |  |  | 5.9
8 | COc1c(O)cc2oc3cc4c(c(O)c3c(=O)c2c1CC=C(C)C)CC(O)C(C)(C)O4 (stereo unspecified) [MANGOSTANOL] | 21.5 |  |  | 6.5
9 | C=C(C)C1Cc2c(cc3oc4cc(O)c(OC)c(CC=C(C)C)c4c(=O)c3c2O)O1 (stereo unspecified) [MANGOSTENONE F] | 24.8 |  |  | 7.6
10 | C=C(C)C1Cc2c(c(O)cc3oc4cc(O)c(CC=C(C)C)c(O)c4c(=O)c23)O1 (stereo unspecified) [MANGOSTENONE G] | 14.6 |  |  | 6.8
11 | COc1c(O)cc2oc3cc(O)c(CC=C(C)C)c(O)c3c(=O)c2c1CC=C(C)C [MANGOSTIN] | 12.2 |  |  | 5.8
12 | O=c1c(O)c(-c2ccc(O)c(O)c2)oc2cc(O)cc(O)c12 [QUERCETIN] | 9.8 |  |  | 
13 | CC(C)=CCC/C(C)=C/Cc1c(O)cc2oc3c(O)ccc(O)c3c(=O)c2c1O [SMEATHXANTHONE A] | 0.27 | 0.0447 | tde | 0.15
